According to paper PMC4227698, “Poly(Ethylene Glycol) as a Scaffold for High-Affinity Open-Channel Blockers of the Mouse Nicotinic Acetylcholine Receptor” (PLoS ONE, 2014):
Where two headings read alike, the source gives them in different places.

Legend:
muscle-type AChR = settings: cited from earlier work; for blocking rate constant k+B / unblocking rate constant k–B: ref Table S1 refs 1-12
[1] = target: T1, adult mouse muscle AChR (α, β, δ, ε) (Mus musculus, UniProt P02716+P04756+P09690+P20782, V433A); assay: Single-channel patch-clamp analysis of open-channel blockade of AChRs expressed in HEK-293 cells; type: cell-based; settings: for effect on apparent mean open time (τapp): 100 µM ACh with 5, 10 or 20 µM PEG-QA; for unblocking rate constant k–B / blocking rate constant k+B: cell-attached; for unblocking rate constant k–B: average of unblocking rates at all tested concentrations; for blocking rate constant k+B: slope of linear fit of blocking rates
T1 construct: expressed in transfected cells; host or cells: HEK-293 cells (ATCC CRL-1573), transient calcium phosphate transfection, α:β:δ:ε = 2:1:1:1
T1 sequence (P04756 21-457 V433A): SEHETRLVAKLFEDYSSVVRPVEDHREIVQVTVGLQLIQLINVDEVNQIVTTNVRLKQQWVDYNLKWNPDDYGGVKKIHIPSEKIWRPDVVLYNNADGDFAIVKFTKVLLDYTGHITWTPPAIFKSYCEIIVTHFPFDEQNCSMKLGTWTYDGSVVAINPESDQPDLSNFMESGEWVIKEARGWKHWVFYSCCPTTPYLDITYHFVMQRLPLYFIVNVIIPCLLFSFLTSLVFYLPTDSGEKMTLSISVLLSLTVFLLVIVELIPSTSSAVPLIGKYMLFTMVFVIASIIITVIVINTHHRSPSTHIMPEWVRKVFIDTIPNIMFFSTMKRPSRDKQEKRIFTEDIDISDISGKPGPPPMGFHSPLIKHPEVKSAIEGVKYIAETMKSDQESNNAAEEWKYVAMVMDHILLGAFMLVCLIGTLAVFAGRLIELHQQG
T1 sequence (P09690 24-501): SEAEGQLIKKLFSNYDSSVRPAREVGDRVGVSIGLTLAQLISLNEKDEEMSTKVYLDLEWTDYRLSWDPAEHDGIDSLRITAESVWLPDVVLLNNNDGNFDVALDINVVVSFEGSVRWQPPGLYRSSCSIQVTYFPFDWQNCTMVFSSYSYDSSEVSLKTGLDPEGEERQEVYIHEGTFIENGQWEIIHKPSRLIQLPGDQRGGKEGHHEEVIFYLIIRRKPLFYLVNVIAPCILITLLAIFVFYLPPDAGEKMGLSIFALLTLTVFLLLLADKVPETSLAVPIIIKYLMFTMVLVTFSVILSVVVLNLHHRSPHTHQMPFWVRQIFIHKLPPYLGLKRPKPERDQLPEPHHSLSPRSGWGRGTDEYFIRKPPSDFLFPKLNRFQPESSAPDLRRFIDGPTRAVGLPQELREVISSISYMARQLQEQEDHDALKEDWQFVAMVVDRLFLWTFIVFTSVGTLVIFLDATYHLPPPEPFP
T1 sequence (P02716 25-520): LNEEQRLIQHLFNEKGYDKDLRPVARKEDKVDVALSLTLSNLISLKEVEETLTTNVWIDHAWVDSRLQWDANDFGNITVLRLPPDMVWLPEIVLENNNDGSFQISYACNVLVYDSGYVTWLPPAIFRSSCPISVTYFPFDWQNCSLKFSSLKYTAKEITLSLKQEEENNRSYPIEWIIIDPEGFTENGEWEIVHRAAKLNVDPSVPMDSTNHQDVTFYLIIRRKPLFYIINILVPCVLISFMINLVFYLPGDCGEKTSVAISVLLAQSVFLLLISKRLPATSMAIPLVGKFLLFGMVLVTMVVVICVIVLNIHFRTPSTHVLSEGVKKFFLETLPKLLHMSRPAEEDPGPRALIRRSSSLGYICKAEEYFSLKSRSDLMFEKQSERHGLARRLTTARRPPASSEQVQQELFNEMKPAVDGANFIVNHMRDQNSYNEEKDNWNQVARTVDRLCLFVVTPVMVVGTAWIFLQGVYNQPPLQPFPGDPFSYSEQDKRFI
T1 sequence (P20782 21-493): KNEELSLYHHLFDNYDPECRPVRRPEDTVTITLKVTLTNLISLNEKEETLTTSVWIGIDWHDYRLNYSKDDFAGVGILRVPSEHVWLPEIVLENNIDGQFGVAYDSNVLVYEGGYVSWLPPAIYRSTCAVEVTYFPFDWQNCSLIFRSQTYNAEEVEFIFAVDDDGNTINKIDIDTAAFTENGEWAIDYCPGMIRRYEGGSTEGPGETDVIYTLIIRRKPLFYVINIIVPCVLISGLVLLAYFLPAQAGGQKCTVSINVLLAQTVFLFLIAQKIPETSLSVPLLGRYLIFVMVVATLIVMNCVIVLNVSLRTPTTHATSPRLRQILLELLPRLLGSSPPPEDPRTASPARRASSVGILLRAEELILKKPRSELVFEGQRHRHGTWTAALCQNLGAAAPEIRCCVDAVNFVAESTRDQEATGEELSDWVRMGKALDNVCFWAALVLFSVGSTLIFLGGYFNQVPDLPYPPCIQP
Experimental: The cDNA clones of adult mouse muscle AChR subunits (α, β, δ, ε) in the vector pRBG4 were generously provided by Professor Anthony Auerbach (University at Buffalo, NY). […] Human embryonic kidney cells (HEK-293 cells, ATCC CRL-1573) were transiently transfected by calcium phosphate precipitation. In brief, HEK-293 cells were maintained in Dulbecco's […] (Invitrogen) supplemented with 10% Fetal Bovine Serum (Invitrogen) at 37°C and 5% CO2. Cells were plated 24 h before transfection to reach a confluence of 40–60%. A total of 3.5 µg DNA per 35-mm culture dish (α:β:δ:ε = 2∶1∶1∶1) was used. […] The medium was changed 24 h after the addition of DNA, and patch-clamp recordings were carried out 20–36 h thereafter.
Single-channel currents from AChRs were recorded using patch-clamp techniques in the cell-attached configuration. For dose-dependence measurements, a holding potential of +70 mV was applied. Kinetic analysis of single-channel currents was carried out using the QuB suite, [12]. The currents were idealized using the segmented k-means (SKM) hidden Markov algorithm at full bandwidth (10 kHz). Kinetic modeling of the idealized intervals was performed using the maximum interval likelihood (MIL) method, [12]. Additional details of recording and data analysis are provided in File S1.
MIL analysis on 2–4 cells was performed to determine the apparent mean open time (τapp), blocking rate, and unblocking rate for each measuring condition (reported as mean ± SEM). Uncertainties in the blocking rate constant (k+B values in Figure 2F) are reported as the standard errors in the least squares fits.
To test this hypothesis, we characterized the blockade kinetics of a series of PEG-QA conjugates (PQ1–PQ5; Figure 1) using patch-clamp electrophysiology. These conjugates were prepared from a short PEG, octa (ethylene glycol), through a three-step conversion (File S1). The chosen QA groups are small relative to the backbone length, and the hydrodynamic radii of these compounds are therefore expected to be similar. The kinetics and microscopic equilibrium affinity of channel blockade were determined by analyzing the acetylcholine (ACh)-elicited currents at the single-channel level. Channel activities were measured at 100 µM ACh in the absence or presence of 5, 10, or 20 µM of PEG-QA. […] The brief gaps within the clusters represent channel closing events.
Typical open-channel blockers follow a sequential blockade mechanism: the channel opens in response to ACh binding, and the blocker reversibly binds and dissociates from the transmembrane pore before the channel closes (Figure 1 and File S1). […] A new population of non-conducting blockade events, in addition to the brief closing and the long desensitized dwells, is also observed. These blockade events manifest themselves as a new component in the closed-time histogram. The relative area of the blockade component increases with increasing blocker concentration (reflecting the concentration-dependent rate of pore blockade), while the lifetime of this component (τB) is independent of blocker concentration (reflecting the unimolecular nature of blocker dissociation). These kinetic features allow the blocking and unblocking rate constants (k+B and k–B, respectively) to be determined by fitting of the dwell times under each set of conditions (File S1). […]
were amplified (Axopatch 200B, Axon Instruments, Foster City, CA), low-pass filtered at 10 kHz, and digitized at 20 kHz (NI 6040 E Data Acquisition Board, National Instruments, Austin, TX). Data were recorded directly to a desktop PC hard drive using the QuB software (www.qub.buffalo.edu).
1.3. Analysis of single-channel data (see also: Figure S1)
Kinetic analysis of single-channel currents was carried out using the QuB suite. The currents were idealized using the segmented k-means (SKM) hidden Markov algorithm at full bandwidth (10 kHz). Kinetic modeling of the idealized intervals […]

[2] = target: T1, adult mouse muscle AChR (α, β, δ, ε); assay: Agonist potency of PEG-QA alone, single-channel recording; type: cell-based; settings: 10 µM in the pipette solution without other agonists, +70 mV
From the text: Various QA compounds, including the prototype PEG-QA (PQ0), have been previously reported as agonists for the muscle-type AChR [8], [19], [26]–[28]. […] The agonist potencies of PEG-QAs correlate roughly inversely with the size of their QA groups (except PQ4; Figure S4). […] The low agonist potencies of PQ3 and PQ5 may be attributable to their bulky QA groups, which may cause reduced affinities for the agonist-binding pocket and/or interfere with receptor conformational changes required for channel gating. Open-channel blockers with low agonist potencies may be favorable in some applications, since their pharmacological effects are simpler and more predictable.
Supplementary file pone.0112088.s004.tif: Figure S4 The agonist potencies of PQ1–5. (A) Representative traces of single-channel recordings in the presence of individual PEG-QA (10 µM in the pipette solution without other agonists). Pipette potential was held at +70 mV, and the currents are shown as upward deflections. (B) The effect of QA structure on the open probability of the AChR (defined as [drawing 1] , where N max is the maximal number of simultaneously open channels and Po,i is the fraction of time in which i channels open simultaneously). Data are plotted in log-scale in order to present the low NPo values of PQ3 and PQ5. (C) The effect of QA structure on the mean open time of the AChR. […]

[3] = previously reported open-channel blockers
[4] = previously reported open-channel blockers, ref Table S1 refs 1-14, read-out: Kd (= k–B/k+B)
[5] = 100 µM ACh, +70 mV, predominant blockade mode
[6] = predominant blockade mode, 100 µM ACh, +70 mV, read-out: Kd (= k–B/k+B) for the open AChR pore
[7] = 20 µM blocker, held at +50, +70, +100, +130 mV

SMILES | blocking rate constant k+B (muscle-type AChR; [3]) [M⁻¹ s⁻¹] | unblocking rate constant k–B (muscle-type AChR; [3]) | Kd (muscle-type AChR; [4]) [µM] | other results
COc1cc2c3cc1Oc1cc(ccc1O)C[C@@H]1c4c(cc(OC)c(O)c4Oc4ccc(cc4)C[C@@H]3N(C)CC2)CC[N+]1(C)C [(+)-tubocurarine] | 3e+06 | 0.8 s⁻¹ | 0.27 | 
Br.C[N+](C)(C)CCCCCNCC12CC3CC(CC(C3)C1)C2.[Br-] [IEM-1460] | 7.2e+07 | 858 s⁻¹ | 12 | 
C[C@]12N[C@H](Cc3ccccc31)c1ccccc12 [MK-801] | 2e+07 | 48 s⁻¹ | 2.4 | 
C[N+](C)(C)CCOCCOCCOCCOCCOCCOCCOCC[N+](C)(C)C [PQ0] |  |  |  | Kd (muscle-type AChR; prototype PEG-trimethylammonium blockers, read-out: Kd for the AChR pore): 9 ± 2 µM
C[N+]1(CCOCCOCCOCCOCCOCCOCCOCC[N+]2(C)CCCC2)CCCC1 [PQ1] |  |  |  | effect on apparent mean open time (τapp) ([1]; +70 mV): dose-dependent decrease; unblocking rate constant k–B [1, 5]: 64 ± 14 s⁻¹; blocking rate constant k+B [1, 5]: 2e+07 ± 4e+06 M⁻¹ s⁻¹; predominant blockade mode ([1]; faster- vs slower-dissociation mode): faster-dissociation mode; Kd [1, 6]: 3 ± 1 µM
C[N+]1(CCOCCOCCOCCOCCOCCOCCOCC[N+]2(C)CCCCC2)CCCCC1 [PQ2] |  |  |  | Kd [1]: 0.08 ± 0.09 µM; effect on apparent mean open time (τapp) ([1]; +70 mV): dose-dependent decrease; unblocking rate constant k–B [1, 5]: 2 ± 2 s⁻¹; blocking rate constant k+B [1, 5]: 2.9e+07 ± 7e+06 M⁻¹ s⁻¹
CC[N+]1(CCOCCOCCOCCOCCOCCOCCOCC[N+]2(CC)CCCCC2)CCCCC1 [PQ3] |  |  |  | effect on apparent mean open time (τapp) ([1]; +70 mV): dose-dependent decrease; unblocking rate constant k–B [1, 5]: 4 ± 2 s⁻¹; blocking rate constant k+B [1, 5]: 2.2e+07 ± 6e+06 M⁻¹ s⁻¹; Kd [1, 6]: 0.17 ± 0.12 µM; agonist potency (channel open probability and opening duration with compound alone) [2]: poor agonists
CC[N+](CC)(CC)CCOCCOCCOCCOCCOCCOCCOCC[N+](CC)(CC)CC [PQ4] |  |  |  | effect on apparent mean open time (τapp) ([1]; +70 mV): dose-dependent decrease; unblocking rate constant k–B [1, 5]: 4 ± 3 s⁻¹; blocking rate constant k+B [1, 5]: 2.2e+07 M⁻¹ s⁻¹; Kd [1, 6]: 0.19 ± 0.15 µM
CCC[N+](C)(CCC)CCOCCOCCOCCOCCOCCOCCOCC[N+](C)(CCC)CCC [PQ5] |  |  |  | voltage dependence of k+B [1, 7]: increases with membrane hyperpolarization; voltage dependence of τapp [1, 7]: decreases with hyperpolarizing; effect on apparent mean open time (τapp) ([1]; +70 mV): dose-dependent decrease; unblocking rate constant k–B [1, 5]: 2 ± 1 s⁻¹; blocking rate constant k+B [1, 5]: 1.5e+07 ± 1e+06 M⁻¹ s⁻¹; Kd [1, 6]: 0.12 ± 0.09 µM; agonist potency (channel open probability and opening duration with compound alone) [2]: poor agonists
Cc1cccc(C)c1NC(=O)C[N+](C)(C)C [QX-222] | 2.1e+07 | ~ 600 s^−1 | ~30 | 
CC[N+](CC)(CC)CC(=O)Nc1c(C)cccc1C [QX-314] | 1.9e+07 | ~ 30 s^−1 | ~1 | 
CC(=O)OCC[N+](C)(C)C [acetylcholine] | 3.7e+07 | 56000 s⁻¹ | 1200 | 
CC(C)(C)NCC(O)c1ccc(O)c(CO)c1 (stereo not shown) [albuterol] | 4.3e+07 | 1042 s⁻¹ | 24 | 
C[N+](C)(C)CCO [choline] |  |  | 12500 | 
CNC1(c2ccccc2Cl)CCCCC1=O (stereo not shown) [ketamine] | 3e+06 | 100 s⁻¹ | 33 | 
Nc1nnc(-c2cccc(Cl)c2Cl)c(N)n1 [lamotrigine] | 6.2e+06 | 575 s⁻¹ | 93 | 
CNC(=O)Oc1ccc2c(c1)[C@]1(C)CCN(C)[C@@H]1N2C [physostigmine] | 2e+07 | 450 s⁻¹ | 23 | 
CCN(CC)CCOC(=O)c1ccc(N)cc1 [procaine] | 2e+06 | 200 s⁻¹ | 100 | 
CN1CCCN=C1/C=C/c1cccs1 [pyrantel] | 8e+07 | 667 s⁻¹ | 8 | 
CC[N+](CC)(CC)CC [tetraethylammonium] |  |  |  | Kd (muscle-type AChR; read-out: Kd (= k–B/k+B)): 2700 µM
